Test [1] deals with M. tuberculosis (Mtb) strain H37Ra. Put plainly: microbe, parasite or virus in culture. The test is classed as cell-based. The note with it: Mycobacterium tuberculosis, read-out: MIC Mtb H37Ra.
Test [2] deals with M. tuberculosis (Mtb) strain H37Rv. Put plainly: microbe, parasite or virus in culture. The test is classed as cell-based, Mycobacterium tuberculosis. The note with it: Mycobacterium tuberculosis, H37RV.
The subject of test [3] is M. smegmatis (Msmeg) strain mc^2155. Put plainly: microbe, parasite or virus in culture. The note with it: Mycolicibacterium smegmatis, MC^2155, read-out: MIC M. smegmatis mc^2155. The test is classed as cell-based.
Test [4] has as its system M. marinum (Mm) strain M (ATCC BAA-535). As to the kind of experiment: microbe, parasite or virus in culture. The note with it: Mycobacterium marinum, ATCCBAA535, read-out: MIC M. marinum strain M. The format is cell-based.
The test system of another test is CHO-K1 cells. Put plainly: cells. The test is classed as cell-based, Chinese hamster (Cricetulus griseus). The following applies: Cricetulus griseus, CHO-K1, 120 h, read-out: IC50 CHO-K1.
Test [5] deals with M. smegmatis DnaN (msDnaN) (Mycolicibacterium smegmatis, UniProt A0QND6). Put plainly: biochemical. The format is binding. The following applies: for Response (Average): MST source data, runs #1-#3, listed as MP B.
Another test relates to S. aureus Newman. Put plainly: microbe, parasite or virus in culture. The format is cell-based. The following applies: Staphylococcus aureus, read-out: MIC S. aureus Newman.
A further test relates to B. subtilis DSM 10. As to the kind of experiment: microbe, parasite or virus in culture. The test is classed as cell-based. The following applies: Bacillus subtilis, DSM10, read-out: MIC B. subtilis DSM 10.
For another test, the system named is E. coli BW25113. As to the kind of experiment: microbe, parasite or virus in culture. The test is classed as cell-based. The note with it: Escherichia coli, BW25113, read-out: MIC E. coli BW25113.
For the next test, the system named is C. freundii DSM 30039. As to the kind of experiment: microbe, parasite or virus in culture. The test is classed as cell-based. The note with it: Citrobacter freundii, DSM30039, read-out: MIC C. freundii DSM 30039.
For the next test, the system named is A. baumannii DSM 30008. As to the kind of experiment: microbe, parasite or virus in culture. The test is classed as cell-based. The note with it: Acinetobacter baumannii, DSM30008, read-out: MIC A. baumannii DSM 30008.
Test [6] has as its system M. smegmatis mc^2155 GM^R. As to the kind of experiment: microbe, parasite or virus in culture. The test is classed as cell-based. The following applies: Mycolicibacterium smegmatis, MC^2155, read-out: MIC M. smegmatis mc^2155 GM^R.
The target in test [7] is T1, M. smegmatis DnaN (DNA polymerase III sliding clamp) (M. smegmatis mc^2155, UniProt A0QND6 1-397, labeled using Monolith Series Protein Labeling Kit BLUE-NHS).
T1 construct: also called msDnaN; DnaN from M. smegmatis mc^2155
T1 sequence (looked up): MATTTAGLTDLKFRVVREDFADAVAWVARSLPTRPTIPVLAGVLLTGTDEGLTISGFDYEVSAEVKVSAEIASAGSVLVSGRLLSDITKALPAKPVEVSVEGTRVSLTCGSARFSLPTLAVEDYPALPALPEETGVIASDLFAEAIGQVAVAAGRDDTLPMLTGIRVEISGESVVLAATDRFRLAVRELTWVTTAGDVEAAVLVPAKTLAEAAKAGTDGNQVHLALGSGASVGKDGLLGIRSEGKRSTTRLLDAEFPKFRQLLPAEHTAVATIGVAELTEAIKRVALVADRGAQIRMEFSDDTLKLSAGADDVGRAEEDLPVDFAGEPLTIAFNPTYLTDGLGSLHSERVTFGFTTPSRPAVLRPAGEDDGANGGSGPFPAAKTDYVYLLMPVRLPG
Put plainly: MST; msDnaN labeled (BLUE-NHS) at 50 nM; compounds titrated in 16 serial dilution steps, triplicates; 20 mM Tris, 150 mM NaCl, 0.05% Tween-20; Monolith NT-115. The note with it: both partners purified.

≈ marks a conversion by molar mass, not a printed value. Where “and” joins values, the source holds several entries; their conditions need not be identical. Identical values can stand only once. Like-named read-outs stand apart in the source and are kept apart here. Numbered stars: 1 amine (or outer) side, 2 acyl side, 3 side chain; on linkers, the order of the positions; unused ones are H or OH. Bridge positions count the residues as written; N and C are the ends. Square brackets hold non-standard residues; d marks the D form. Ends that are not written are not given here. Peptide text beside a SMILES is read from it. * marks the point of attachment. ξ: configuration not given here. X2 = CCCC1CC(C(=O)[*:2])N([*:1])C1; Butanoyl(2-oxo) = CCC(=O)C(=O)*; NMeAhp(2) = CCCCC[CH](NC)C(=O)O; ξPro(4ξ-Me) = CC1CNC(C(=O)O)C1; NMeT = CN[CH](C(=O)O)[CH](C)O; NMeL = CN[CH](CC(C)C)C(=O)O; hLeu = CC(C)CC[CH](N)C(=O)O; NMeV = CN[CH](C(=O)O)C(C)C

Usually IC50 stands for the midpoint of a concentration-inhibition curve. Broadly, the Kd is the free concentration of one partner at which half of the binding sites on the other are occupied at equilibrium, for simple one-to-one binding. Low values mean tighter binding, high ones weaker binding. Take `CCCCCC1C(=O)NCC(=O)OC(C)C(N(C)C(=O)C2CC(CCC)CN2C(=O)C(C(C)C)N(C)C(=O)C(=O)CC)C(=O)NC(CC(C)C)C(=O)N2CC(C)CC2C(=O)NC(CCC(C)C)C(=O)N(C)C(C(C)C)C(=O)N2CCCC2C(=O)N1C` (centres unmarked) [Mycoplanecin E] ({Butanoyl(2-oxo)}-[NMeV][X2][NMeT]L[ξPro(4ξ-Me)][hLeu][NMeV]P[NMeAhp(2)]G; ester 3-C; configuration not given here): the MIC in [1] was 0.03 µg/mL (≈ 0.0248 µM); in test [2] (read-out: MIC Mtb H37Rv), 0.083 µg/mL (≈ 0.0685 µM); in test [2] (read-out: minimum inhibition concentration against Mycobacterium tuberculosis), 0.083 µg/mL (≈ 0.0685 µM); in test [3], 0.125 µg/mL (≈ 0.103 µM); in test [4], 0.5 µg/mL (≈ 0.413 µM); in the test on S. aureus Newman, more than 64 µg/mL. Besides, the MIC in the test on B. subtilis DSM 10, in the test with E. coli BW25113, in the test on C. freundii DSM 30039 and with A. baumannii DSM 30008 was more than 64 µg/mL each time. Moreover, the IC50 with CHO-K1 cells is more than 37 µg/mL. For the same molecule, binding in [5] was characterised by a dissociation constant (Kd) of 64.4 ± 33.2 nM.
Regarding `CCCC1CC(C(=O)N(C)C2C(=O)NC(CC(C)C)C(=O)N3CC(C)CC3C(=O)NC(CCC(C)C)C(=O)N(C)C(C(C)C)C(=O)N3CCCC3C(=O)N(C)C(CC(C)C)C(=O)NCC(=O)OC2C)N(C(=O)C(C(C)C)N(C)C(=O)C(=O)CC)C1` (centres unmarked) [Mycoplanecin D] ({Butanoyl(2-oxo)}-[NMeV][X2][NMeT]L[ξPro(4ξ-Me)][hLeu][NMeV]P[NMeL]G; ester 3-C; configuration not given here), the MIC in test [1] is 0.05 µg/mL (≈ 0.0418 µM); in test [2] (read-out: MIC Mtb H37Rv) it was 0.17 µg/mL (≈ 0.142 µM); in [3], 0.25 µg/mL (≈ 0.209 µM); in test [6] it was 8 µg/mL (≈ 6.68 µM); in [4] it was 1 µg/mL (≈ 0.835 µM); in the test with S. aureus Newman, more than 64 µg/mL. Moreover, the MIC with B. subtilis DSM 10, in the test on E. coli BW25113, in the test on C. freundii DSM 30039 and with A. baumannii DSM 30008 was more than 64 µg/mL each time. Besides, in the test on CHO-K1 cells, the IC50 was more than 37 µg/mL. The Kd in [5] was 134 ± 69.3 nM.
Take `CCC(=O)C(=O)N(C)C(C(=O)N1CC(C)CC1C(=O)N(C)C1C(=O)NC(CC(C)C)C(=O)N2CC(C)CC2C(=O)NC(CCC(C)C)C(=O)N(C)C(C(C)C)C(=O)N2CCCC2C(=O)N(C)C(CC(C)C)C(=O)NCC(=O)OC1C)C(C)C` (centres unmarked) [Mycoplanecin B]: the MIC in test [1] is 0.1 µg/mL (≈ 0.0855 µM); in test [2] (read-out: MIC Mtb H37Rv), 0.43 µg/mL (≈ 0.368 µM); in test [3], 0.5 µg/mL (≈ 0.428 µM); in test [6] it was 8 µg/mL (≈ 6.84 µM); in [4] it was 2 µg/mL (≈ 1.71 µM); in the test on S. aureus Newman, more than 64 µg/mL. Also, the MIC in the test on B. subtilis DSM 10, in the test on E. coli BW25113, in the test on C. freundii DSM 30039 and in the test on A. baumannii DSM 30008 was more than 64 µg/mL each time. Further, in the test with CHO-K1 cells, the IC50 was more than 37 µg/mL. The molecule further gave a Kd in [5] of 24.4 ± 11.9 nM. The “Response (Average)” value in test [5] (Dose 1.22E-08 (unit not given)) is 897.348 and 900.943 and 911.516; in [5] (Dose 1.25E-05 (unit not given)), 906.572 and 909.169 and 909.706; in test [5] (Dose 1.53E-09 (unit not given)) it was 896.843 and 900.134 and 899.613; in test [5] (Dose 1.56E-06 (unit not given)) it was 907.358 and 910.005 and 911.362; in test [5] (Dose 1.95E-07 (unit not given)) it was 905.084 and 913.604 and 911.242; in test [5] (Dose 2.44E-08 (unit not given)), 897.582 and 904.128 and 903.123. In addition, the “Response (Average)” value in [5] (Dose 2.50E-05 (unit not given)) was 906.786 and 911.734 and 910.009; in test [5] (Dose 3.05E-09 (unit not given)), 897.958 and 898.601 and 900.671; in [5] (Dose 3.13E-06 (unit not given)) it was 907.585 and 910.886 and 909.908; in [5] (Dose 3.91E-07 (unit not given)), 908.074 and 910.248 and 909.115; in test [5] (Dose 4.88E-08 (unit not given)), 897.616 and 904.939 and 909.25; in [5] (Dose 5.00E-05 (unit not given)), 906.528 and 909.788 and 910.069. Moreover, the “Response (Average)” value in [5] (Dose 6.10E-09 (unit not given)) was 894.937 and 899.128 and 901.665; in test [5] (Dose 6.25E-06 (unit not given)) it was 905.496 and 910.338 and 909.682; in test [5] (Dose 7.81E-07 (unit not given)) it was 907.246 and 909.231 and 910.996; in test [5] (Dose 9.77E-08 (unit not given)), 902.534 and 911.539 and 911.215.

B1: griselimycin (peptide)
chain: VPTLPLVPLG
modifications: also: macrocycle, 4-methylproline twice, positions not placed
With B1, in test [7], the Kd was determined as 6.5 nM.

The values above are taken from article PMC10817943 (Nature Communications, 2024).
